# Earlier results, collected in article PMC12694011, “Update and ADMET Profile of the Latin American Natural Product Database: LANaPDB” (Molecular Informatics, 2025).
# System: hERG channel
# Conditions: not given
row,Structure (SMILES),hERG channel blocking (in words)
1,OCCN1CCN(CCCN2c3ccccc3Sc3ccc(Cl)cc32)CC1 [perphenazine],potent hERG channel blockers
2,Fc1ccc(C(c2ccc(F)cc2)N2CCN(C/C=C/c3ccccc3)CC2)cc1 [flunarizine],potent hERG channel blockers
3,O=c1[nH]c2ccccc2n1C1CCN(CCCC(c2ccc(F)cc2)c2ccc(F)cc2)CC1 [pimozide],potent hERG channel blockers

# System: not given
# Design: method as in PMID 19947605
# Conditions: amphoteric drugs
row,Structure (SMILES),paracellular transport (in words)
1,CC1(C)S[C@@H]2[C@H](/N=C/N3CCCCCC3)C(=O)N2[C@H]1C(=O)O [amdinocillin],undergo extensive paracellular transport
2,Nc1nc(O)c2ncn(COC(CO)CO)c2n1 [ganciclovir],undergo extensive paracellular transport
3,CN1C(C(=O)Nc2ccccn2)=C(O)c2ccccc2S1(=O)=O [piroxicam],undergo extensive paracellular transport
4,N[C@@H]1[C@H]2CN(c3nc4c(cc3F)c(=O)c(C(=O)O)cn4-c3ccc(F)cc3F)C[C@@H]12 [trovafloxacin],undergo extensive paracellular transport
